ChEMBL document CHEMBL1158014, “Calamistrins A and B, two new cytotoxic monotetrahydrofuran annonaceous acetogenins from Uvaria calamistrata” (J Nat Prod, 1999)
In brackets after ≈: the same amount, converted by molar mass.

Tests used:
Assay type in all cases: functional, cell-based
A2780 = assay: Cytotoxicity against human A2780 cells after 5 days by MTT assay; conditions: A2780, 120 h
KB = assay: Cytotoxicity against human KB cells after 5 days by MTT assay; conditions: 120 h
HCT-8 = assay: Cytotoxicity against human HCT8 cells after 5 days by MTT assay; conditions: HCT-8, 120 h

SMILES | IC50 (A2780) [µg/mL] | IC50 (KB) [µg/mL] | IC50 (HCT-8) [µg/mL]
CCCCCCCCCCCC[C@H](O)[C@H]1CC[C@H]([C@H](O)C[C@@H](O)CCCCCCCCCCCCC2=C[C@H](C)OC2=O)O1 [CALAMISTRIN A] | 1.4 (≈ 2.3 µM) | 2 (≈ 3.28 µM) | 0.37 (≈ 0.608 µM)
CCCCCCCCCCCC[C@H](O)[C@H]1CC[C@H]([C@@H](C[C@H](O)CCCCCCCCCCCCC2=C[C@H](C)OC2=O)OC(C)=O)O1 [CALAMISTRIN B] | 3.1 (≈ 4.76 µM) | 6.1 (≈ 9.37 µM) | 0.022 (≈ 0.0338 µM)
